Like-named read-outs stand apart in the source and are kept apart here.
System: SU-DHL-4 cells
Experiment: Inhibitory effect on cell viability in SU-DHL-4 cell line (Test Example 1)
Format: cell-based, human
Conditions: SU-DHL-4 cells, 72 hours, Cell Counting Kit-8, concentration showing 90% inhibition of cell viability, read-out: SU-DHL-4 Cell Viability Inhibition Rate IC90
Method: SU-DHL-4 cells (Code No. ACC 495, Deutsche Sammlung von Mikroorganismen and Zellkulturen GmbH; DSMZ) were cultured at 37° C. using a carbon dioxide incubator (95% air, 5% CO2) in RPMI1640 medium (Code No. 11875-093, Thermo Fisher Scientific) in which inactivated fetal bovine serum (FBS: Code No. 10099-148, Thermo Fisher Scientific) in an amount to give a final concentration of 10 vol % and penicillin/streptomycin solution (PS: […] The cells were passaged twice a week at a volume of 20-40 mL so as to maintain a cell concentration of 1×10^6 cells/mL or less. […] After seeding, the cells were precultured at 37° C. in a carbon dioxide gas incubator for 18 to 25 hours. […] At this time, the final concentration of DMSO was adjusted to be 0.1 vol %. After adding the test compound, the cells were cultured at 37° C. in a carbon dioxide gas incubator for 72 hours. Next, 0.020 mL of Cell Counting Kit-8 (Code No. CK04, DOJINDO) solution diluted 2-fold or 4-fold with phosphate buffered saline (PBS) was added to each well. Color reaction was carried out in a carbon dioxide gas incubator at 37° C. for 2 to 3 hours, and the absorbance at a wavelength of 450 nm was measured using SpectraMax 340PC (Molecular Devices). […] Absorbance of a well containing test compound • B: Absorbance of a well without addition of cells • C: Absorbance of a well without addition of test compound

Compound | IC90 [nM] | IC90 (Homo sapiens) [nM]
CCC(=O)N1c2ccccc2[C@H](Nc2ccc(C(=O)NCCCNC(=O)c3ccc(C(O)c4cc(O)cc(-c5c(C)noc5C)c4)cc3)cc2)C[C@@H]1C (relative stereo) [Compound 1d, 4-{[3-(3,5-Dimethylisoxazol-4-yl)-5-hydroxyphenyl](hydroxy)methyl}-N-[3-(4-{[(2S*,4R*)-2-methyl-1-propionyl-1,2,3,4-tetrahydroquinolin-4-yl]amino}benzamide)propyl]benzamide] | 38 | –
CCC(=O)N1c2ccccc2[C@H](Nc2ccc(C(=O)NCCCNC(=O)c3ccc(Cn4c(CC)cc5c4CCCC5=O)cc3)cc2)C[C@@H]1C (relative stereo) [Compound 1e, 4-[(2-Ethyl-4-oxo-4,5,6,7-tetrahydro-1H-indol-1-yl)methyl]-N-[3-(4-{[(2S*,4R*)-2-methyl-1-propionyl-1,2,3,4-tetrahydroquinolin-4-yl]amino}benzamide)propyl]benzamide] | 39.8 | –
CCC(=O)N1c2ccccc2[C@H](Nc2ccc(C(=O)NCCCNC(=O)c3ccc(C4=NCc5nnc(C)n5-c5sc(C)c(C)c54)cc3)cc2)C[C@@H]1C (relative stereo) [Compound 1f, 4-{[(2S*,4R*)-2-Methyl-1-propionyl-1,2,3,4-tetrahydroquinolin-4-yl]amino}-N-{3-[4-(2,3,9-trimethyl-6H-thieno[3,2-f][1,2,4]triazolo[4,3-a][1,4]diazepin-4-yl)benzamide]propyl}benzamide] | 4.78 | –
CCC(=O)N1c2ccccc2[C@H](Nc2ccc(-c3cn4c(n3)CN(C(=O)C3CCC(N[C@@H]5C[C@H](C)N(C(=O)CC)c6ccccc65)CC3)CC4)cc2)C[C@@H]1C (relative stereo) [Compound 7b, 1-((2S*,4R*)-2-Methyl-4-(((1R,4r)-4-(2-(4-(((2S,4R)-2-methyl-1-propionyl-1,2,3,4-tetrahydroquinolin-4-yl)amino)phenyl)-5,6,7,8-tetrahydroimidazo[1,2-a]pyrazine-7-carbonyl)cyclohexyl)amino)-3,4-dihydroquinolin-1(2H)-yl)propan-1-one] | 1.51 | –

More lines, now with the values ahead:

IC90 [nM] | IC90 (Homo sapiens) [nM] | Compound
0.36 | – | CCC(=O)N1c2ccccc2[C@H](Nc2ccc(NC(=O)c3cccc(NC(=O)c4ccc(N[C@@H]5C[C@H](C)N(C(=O)CC)c6ccccc65)cc4)c3)cc2)C[C@@H]1C (relative stereo) [Compound 2j, 3-(4-{[(2S,4R)-2-Methyl-1-propionyl-1,2,3,4-tetrahydroquinolin-4-yl]amino}benzamide)-N-(4-{[(2S*,4R*)-2-methyl-1-propionyl-1,2,3,4-tetrahydroquinolin-4-yl]amino}phenyl)benzamide]
– | 0.13 | CCC(=O)N1c2ccccc2[C@H](Nc2ccc(NC(=O)CNC(=O)Nc3ccc(N[C@@H]4C[C@H](C)N(C(=O)CC)c5ccccc54)cc3)cc2)C[C@@H]1C (relative stereo) [Compound 6j, N-(4-(((2S*,4R*)-2-Methyl-1-propionyl-1,2,3,4-tetrahydroquinolin-4-yl)amino)phenyl)-2-(3-(4-(((2S*,4R*)-2-methyl-1-propionyl-1,2,3,4-tetrahydroquinolin-4-yl)amino)phenyl)ureido)acetamide]
25.9 | – | CCC(=O)N1c2ccccc2[C@H](Nc2ccc(NC(=O)CNC(=S)OC3CCC(N[C@@H]4C[C@H](C)N(C(=O)CC)c5ccccc54)CC3)cc2)C[C@@H]1C (relative stereo) [Compound 7d, 0-((1R,4R)-4-(((2S*,4R*)-2-Methyl-1-propionyl-1,2,3,4-tetrahydroquinolin-4-yl)amino)cyclohexyl)(2-((4-(((2S,4R)-2-methyl-1-propionyl-1,2,3,4-tetrahydroquinolin-4-yl)amino)phenyl)amino)-2-oxoethyl)carbamothioate]

From patent US20220378923A1, “BET DEGRADER” (KYOWA KIRIN CO., LTD., priority 2019, published 2022)
